Measurements published in PubChem BioAssay (NCI).
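The compound was tested at five concentrations on cells cultured in 96-well plates, with a 48-hour exposure period. GI50 marks 50% less growth. Definition used: TGI = concentration required for complete inhibition of growth.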

How the values were obtained:
Test in all cases: growth of human tumour cells (NCI), 48 h
[1] = tested on: M14 melanoma
[2] = tested on: CAKI-1 renal
[3] = tested on: SK-MEL-5 melanoma
[4] = tested on: A498 renal
[5] = tested on: SW-620 colon
[6] = tested on: SK-OV-3 ovarian
[7] = tested on: NCI-H460 lung
[8] = tested on: UACC-62 melanoma
[9] = tested on: U251 CNS
[10] = tested on: SN12C renal
[11] = tested on: EKVX NSCLC
[12] = tested on: OVCAR-4 ovarian
[13] = tested on: NCI-H23 lung
[14] = tested on: CCRF-CEM leukemia
[15] = tested on: HOP-62 NSCLC
[16] = tested on: HCT-15 colon
[17] = tested on: 786-0 renal
[18] = tested on: DLD-1 colon
[19] = tested on: OVCAR-8 ovarian
[20] = tested on: SNB-19 CNS
[21] = tested on: HOP-18 NSCLC
[22] = tested on: SNB-75 CNS
[23] = tested on: LXFL 529 NSCLC
[24] = tested on: LOX IMVI melanoma
[25] = tested on: SF-268 CNS
[26] = tested on: HCT-116 colon
[27] = tested on: DMS 273 small cell lung
[28] = tested on: HT29 colon
[29] = tested on: A549 NSCLC
[30] = tested on: SK-MEL-28 melanoma
[31] = tested on: OVCAR-3 ovarian
[32] = tested on: SF-539 CNS
[33] = tested on: XF 498 CNS
[34] = tested on: M19-MEL melanoma
[35] = tested on: RXF-631 renal
[36] = tested on: HCC-2998 colon
[37] = tested on: KM20L2 colon
[38] = tested on: TK-10 renal
[39] = tested on: COLO 205 colon
[40] = tested on: UO-31 renal
[41] = tested on: IGROV1 ovarian
[42] = tested on: SNB-78 CNS
[43] = tested on: SF-295 CNS
[44] = tested on: ACHN renal

c1cc[c]([Sn]([S]c2cccc3cccnc23)([c]2ccccc2)[c]2ccccc2)cc1
GI50 [1]: 22.2 nM | TGI [1]: 62.4 nM | GI50 [2]: 11.4 nM | TGI [2]: 42.1 nM | GI50 [3]: 42 nM | TGI [3]: 277 nM | GI50 [4]: 152 nM | TGI [4]: 346 nM | GI50 [5]: 22.5 nM | TGI [5]: 91.8 nM | GI50 [6]: 107 nM | TGI [6]: 356 nM | GI50 [7]: 14.3 nM | TGI [7]: 33 nM | GI50 [8]: 35.2 nM | TGI [8]: 162 nM | GI50 [9]: 34.7 nM | TGI [9]: 110 nM | GI50 [10]: 32.6 nM | TGI [10]: 161 nM | GI50 [11]: 55.8 nM | TGI [11]: 370 nM | GI50 [12]: 17.1 nM | TGI [12]: 64.4 nM | GI50 [13]: 30.5 nM | TGI [13]: 175 nM | GI50 [14]: 15.8 nM | TGI [14]: 74.4 nM | GI50 [15]: 103 nM | TGI [15]: 368 nM | GI50 [16]: 19.6 nM | TGI [16]: 46.7 nM | GI50 [17]: 23.4 nM | TGI [17]: 75.8 nM | GI50 [18]: 32.1 nM | TGI [18]: 101 nM | GI50 [19]: 38.7 nM | TGI [19]: 255 nM | GI50 [20]: 256 nM | TGI [20]: 901 nM | GI50 [21]: 78.4 nM | TGI [21]: 214 nM | TGI [22]: 47.3 nM | GI50 [23]: 20.9 nM | TGI [23]: 54.8 nM | GI50 [24]: 15.9 nM | TGI [24]: 30.4 nM | GI50 [25]: 46.9 nM | TGI [25]: 241 nM | GI50 [26]: 16.1 nM | TGI [26]: 39 nM | GI50 [27]: 17.3 nM | TGI [27]: 34.4 nM | GI50 [28]: 22.3 nM | TGI [28]: 90.8 nM | GI50 [29]: 33.1 nM | TGI [29]: 224 nM | GI50 [30]: 36.4 nM | TGI [30]: 150 nM | GI50 [31]: 15.8 nM | TGI [31]: 34.6 nM | GI50 [32]: 72.5 nM | TGI [32]: 393 nM | GI50 [33]: 24.1 nM | TGI [33]: 52.4 nM | TGI [34]: 172 nM | GI50 [35]: 25.6 nM | TGI [35]: 80.4 nM | GI50 [36]: 43.3 nM | TGI [36]: 96 nM | GI50 [37]: 33.8 nM | TGI [37]: 109 nM | GI50 [38]: 44.6 nM | TGI [38]: 181 nM | GI50 [39]: 17 nM | TGI [39]: 35.2 nM | GI50 [40]: 51.1 nM | TGI [40]: 145 nM | GI50 [41]: 94.3 nM | TGI [41]: 351 nM | GI50 [42]: 20.3 nM | TGI [42]: 65.9 nM | GI50 [43]: 46.2 nM | TGI [43]: 144 nM | GI50 [44]: 33.5 nM | TGI [44]: 116 nM
